Data on 6 compounds can be found in patent publication US10577634B2, “Bioconversion process for producing nylon-7, nylon-7,7 and polyesters” (INVISTA North America S.A.R.L., priority 2011, dated 2020).

The target of series [1] is T1, Nocardia sp. carboxylic acid reductase (CAR) (Nocardia iowensis, UniProt Q6RKB1).
T1 construct: made in house; host or cells: E. coli BL-21 (DE3) RP1pPV2-85; cell free extract
T1 sequence (Q6RKB1 1-1174): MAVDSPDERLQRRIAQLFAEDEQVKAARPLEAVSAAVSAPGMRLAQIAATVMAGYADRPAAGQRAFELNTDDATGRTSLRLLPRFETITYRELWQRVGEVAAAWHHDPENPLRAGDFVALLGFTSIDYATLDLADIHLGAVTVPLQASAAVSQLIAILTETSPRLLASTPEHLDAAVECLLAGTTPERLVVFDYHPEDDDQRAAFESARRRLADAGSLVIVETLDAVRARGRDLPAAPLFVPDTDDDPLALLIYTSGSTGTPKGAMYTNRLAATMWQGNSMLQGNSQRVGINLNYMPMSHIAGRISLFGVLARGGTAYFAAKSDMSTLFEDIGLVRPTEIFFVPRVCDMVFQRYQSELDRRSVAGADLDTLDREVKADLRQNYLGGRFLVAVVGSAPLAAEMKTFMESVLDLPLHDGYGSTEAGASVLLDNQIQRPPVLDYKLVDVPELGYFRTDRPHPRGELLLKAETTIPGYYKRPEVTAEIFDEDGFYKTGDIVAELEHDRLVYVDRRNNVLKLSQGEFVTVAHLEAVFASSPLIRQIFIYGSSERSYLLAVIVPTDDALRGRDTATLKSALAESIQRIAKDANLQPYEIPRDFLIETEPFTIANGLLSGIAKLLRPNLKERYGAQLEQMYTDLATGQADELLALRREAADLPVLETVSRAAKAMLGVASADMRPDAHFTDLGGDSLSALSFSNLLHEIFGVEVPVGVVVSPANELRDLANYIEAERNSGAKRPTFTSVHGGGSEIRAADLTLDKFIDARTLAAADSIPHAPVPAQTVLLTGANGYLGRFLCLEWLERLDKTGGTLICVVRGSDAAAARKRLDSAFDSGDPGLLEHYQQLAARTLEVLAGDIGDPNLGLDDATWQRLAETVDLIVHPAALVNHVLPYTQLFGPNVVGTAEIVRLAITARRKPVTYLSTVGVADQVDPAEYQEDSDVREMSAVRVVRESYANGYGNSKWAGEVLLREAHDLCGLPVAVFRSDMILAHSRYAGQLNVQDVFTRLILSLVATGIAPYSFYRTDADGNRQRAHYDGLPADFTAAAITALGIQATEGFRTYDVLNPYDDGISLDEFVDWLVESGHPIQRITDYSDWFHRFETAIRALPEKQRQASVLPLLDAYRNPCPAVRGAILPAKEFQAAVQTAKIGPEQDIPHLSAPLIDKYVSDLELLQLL
The series is described as follows: Spectrophotometric carboxylic acid reductase (CAR) activity assay, change in absorbance at 340 nm. The format is biochemical. The following applies: for Adjusted for background: gradient of change in absorbance at 340 nm adjusted for background; for gradient of trend line: rate of change in absorbance at 340 nm, CAR cell free extract, substrate added after 2 minutes; for Relative rate % compared to benzoate: relative rate of change in absorbance at 340 nm. The procedure:
The conditions for the assay were taken from Applied and Environmental Microbiology 2004, 70, p 1874-1881.
In a quartz cuvette the following reagents were added: 100 μL MgCl2, 100 μL, ATP, 100 μL NADPH, 200 μL Tris.HCl buffer. The absorbance at 340 nm was measured and recorded and 100 μL of CAR cell free extract was added. The absorbance was monitored and recorded. […] The absorbance monitored over time was subtracted from the initial measurement.

The target in series [2] is T2, AAR acyl-ACP reductase (YP_400611) (Synechococcus elongatus, UniProt Q54765).
T2 construct: host or cells: E. coli MG1655
T2 sequence (Q54765 1-341): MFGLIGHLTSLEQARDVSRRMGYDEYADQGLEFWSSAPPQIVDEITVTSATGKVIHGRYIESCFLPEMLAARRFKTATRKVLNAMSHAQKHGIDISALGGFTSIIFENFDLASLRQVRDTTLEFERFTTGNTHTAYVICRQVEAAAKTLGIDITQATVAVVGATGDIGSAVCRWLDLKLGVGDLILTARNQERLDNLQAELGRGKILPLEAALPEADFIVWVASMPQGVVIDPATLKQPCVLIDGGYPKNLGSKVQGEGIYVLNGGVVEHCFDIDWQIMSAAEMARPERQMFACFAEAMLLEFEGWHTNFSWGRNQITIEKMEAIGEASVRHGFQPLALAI
The following applies: substrate of AAR, octadecanal formed, NADPH-dependent; cited from earlier work.

The target in a further series is T3, ACOT3 (formerly PTE-1a) (Mus musculus, UniProt Q9QYR7).
T3 construct: His-tag; host or cells: E. coli
T3 sequence (Q9QYR7 1-432): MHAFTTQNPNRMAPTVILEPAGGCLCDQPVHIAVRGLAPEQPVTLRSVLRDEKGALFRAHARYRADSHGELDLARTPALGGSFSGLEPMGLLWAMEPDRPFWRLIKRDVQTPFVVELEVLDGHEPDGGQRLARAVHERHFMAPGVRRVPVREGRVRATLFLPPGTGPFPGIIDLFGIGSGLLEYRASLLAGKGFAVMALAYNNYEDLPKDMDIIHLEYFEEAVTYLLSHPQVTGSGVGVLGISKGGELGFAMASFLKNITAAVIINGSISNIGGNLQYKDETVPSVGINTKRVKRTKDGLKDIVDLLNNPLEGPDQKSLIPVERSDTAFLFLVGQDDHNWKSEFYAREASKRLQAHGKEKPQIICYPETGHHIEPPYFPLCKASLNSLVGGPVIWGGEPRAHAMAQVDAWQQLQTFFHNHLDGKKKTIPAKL
Conditions: free CoASH; cited from earlier work.

Series [3] deals with T4, ACOT8 peroxisomal acyl-CoA thioesterase 8 (Mus musculus, UniProt P58137).
T4 construct: His-Tag; host or cells: E. coli
T4 sequence (P58137 1-320): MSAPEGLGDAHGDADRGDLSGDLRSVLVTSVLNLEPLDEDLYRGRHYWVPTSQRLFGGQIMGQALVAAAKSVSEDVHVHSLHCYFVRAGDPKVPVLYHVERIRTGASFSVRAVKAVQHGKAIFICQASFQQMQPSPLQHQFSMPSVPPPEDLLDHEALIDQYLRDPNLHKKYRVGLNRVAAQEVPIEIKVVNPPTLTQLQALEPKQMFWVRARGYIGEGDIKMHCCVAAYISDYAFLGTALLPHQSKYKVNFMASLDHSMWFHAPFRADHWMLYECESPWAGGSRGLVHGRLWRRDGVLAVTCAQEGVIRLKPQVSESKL
The following applies: inhibition of ACOT8; cited from earlier work.

Series [4] deals with T5, ACOT4 peroxisomal acyl-CoA thioesterase 4 (Mus musculus, UniProt Q8BWN8).
T5 construct: His-tag; host or cells: E. coli
T5 sequence (Q8BWN8 1-421): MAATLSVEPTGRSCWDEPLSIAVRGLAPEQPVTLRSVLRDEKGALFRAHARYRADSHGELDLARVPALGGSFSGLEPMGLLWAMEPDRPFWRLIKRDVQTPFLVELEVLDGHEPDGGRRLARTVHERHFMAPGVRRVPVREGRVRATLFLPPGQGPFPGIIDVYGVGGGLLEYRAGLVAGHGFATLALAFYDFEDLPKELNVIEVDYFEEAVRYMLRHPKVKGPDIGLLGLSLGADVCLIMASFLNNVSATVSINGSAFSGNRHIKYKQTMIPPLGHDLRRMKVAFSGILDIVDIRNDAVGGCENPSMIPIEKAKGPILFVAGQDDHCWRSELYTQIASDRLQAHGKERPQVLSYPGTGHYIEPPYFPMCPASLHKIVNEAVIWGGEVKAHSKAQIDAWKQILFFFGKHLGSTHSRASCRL
Conditions: CoASH at concentrations up to 500 μM; cited from earlier work.

A further series has as its target T6, ACOT5 (formerly PTE-1c) (Mus musculus, UniProt Q6Q2Z6).
T6 construct: His-tag; host or cells: E. coli
T6 sequence (Q6Q2Z6 1-421): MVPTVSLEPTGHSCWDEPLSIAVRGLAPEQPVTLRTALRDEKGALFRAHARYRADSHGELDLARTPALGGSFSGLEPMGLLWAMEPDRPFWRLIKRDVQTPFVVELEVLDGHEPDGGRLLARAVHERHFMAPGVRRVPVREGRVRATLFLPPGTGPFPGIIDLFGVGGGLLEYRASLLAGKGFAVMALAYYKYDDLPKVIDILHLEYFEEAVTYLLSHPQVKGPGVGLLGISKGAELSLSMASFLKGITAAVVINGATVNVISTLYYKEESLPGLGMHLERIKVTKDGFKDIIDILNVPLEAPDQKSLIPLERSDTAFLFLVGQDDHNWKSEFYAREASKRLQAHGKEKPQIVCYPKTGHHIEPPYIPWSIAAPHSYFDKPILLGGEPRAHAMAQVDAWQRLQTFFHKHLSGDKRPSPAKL
Conditions: free CoASH; cited from earlier work.

Series [5] concerns the target T7, Amino adipate aminotransferase (Q64602) (Bos taurus, UniProt Q5E9N4).
T7 construct: Purification and properties of 2-aminoadipate: 2-oxoglutarate aminotransferase from bovine kidney; host or cells: bovine kidney
Conditions: in the presence of pimelic acid; cited from earlier work.

The test system of series [6] is PauA catabolic pimeloyl-CoA ligase. The following applies: substrate accepted by PauA, pimelate = 100%; cited from earlier work.

T7 sequence (Q5E9N4 30-425, one chain of several): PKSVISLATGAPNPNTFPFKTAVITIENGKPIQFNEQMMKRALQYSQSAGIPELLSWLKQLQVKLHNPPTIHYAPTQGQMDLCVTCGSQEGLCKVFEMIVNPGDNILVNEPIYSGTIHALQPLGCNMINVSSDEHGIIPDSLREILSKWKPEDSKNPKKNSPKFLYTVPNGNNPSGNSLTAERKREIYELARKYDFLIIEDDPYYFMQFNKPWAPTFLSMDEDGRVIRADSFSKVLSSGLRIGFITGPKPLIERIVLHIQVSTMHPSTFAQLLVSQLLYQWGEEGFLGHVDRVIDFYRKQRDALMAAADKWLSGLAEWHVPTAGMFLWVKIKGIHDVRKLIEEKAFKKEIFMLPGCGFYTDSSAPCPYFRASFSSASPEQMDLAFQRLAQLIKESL

On to `O=C([O-])CCCCCC(=O)[O-].[Na+].[Na+]` [sodium pimelate], for which, in series [1], the Adjusted for background is 0.0068, the “gradient of trend line” value is recorded as 0.0076 and the “Relative rate % compared to benzoate” value stood at 51.1%.
In the case of `CCCCCCCC/C=C\CCCCCCCC(=O)SCCNC(=O)CCNC(=O)[C@H](O)C(C)(C)COP(=O)(O)OP(=O)(O)OC[C@H]1O[C@@H](n2cnc3c(N)ncnc32)[C@H](O)[C@@H]1OP(=O)(O)O` [oleoyl-CoA], in series [2], the Michaelis constant (Km) was 130 µM.
For the compound oleoyl-ACP, the Michaelis-Menten constant (Km) in series [2] is 8 µM.
In the case of `CC(C)(COP(=O)(O)OP(=O)(O)OC[C@H]1O[C@@H](n2cnc3c(N)ncnc32)[C@H](O)[C@@H]1OP(=O)(O)O)[C@@H](O)C(=O)NCCC(=O)NCCS` [CoASH], the inhibition entry on ACOT3 (formerly PTE-1a) and on ACOT5 (formerly PTE-1c) was “no inhibition” each time. For the same compound, the IC50 in series [3] is 10 to 15 µM. Further, in series [4], the “inhibition of the reaction” value is recorded as “not inhibited”.
`O=C(O)CCCCCC(=O)O` [pimelic acid]: the “activity relative to the activity for benzoic acid” value in series [1] (reduction to pimelic acid semialdehyde by CAR from Nocardia) was > 50%. Besides, the reduction in activity in series [5] is recorded as 30%. In addition, the relative activity in series [6] was 100%.
`O=C([O-])c1ccccc1.[Na+]` [sodium benzoate]: in series [1], the Adjusted for background stood at 0.00133, the “gradient of trend line” value is on record as 0.0141 and the “Relative rate % compared to benzoate” value was 100%.

A word on the Km: it is the concentration of substrate that gives half-maximal velocity. A word on the IC50: it is the point on the concentration scale where inhibition reaches its midpoint.
